Laboratory results published in paper PMC2879651 (Bioanalysis, 2009).
Like-named read-outs stand apart in the source and are kept apart here.

Key:
[1] = rats, 1 hour after bufotenine 30 mg/kg s.c.; cited from earlier work
[2] = assay type: in vivo, male FVB/N mice; conditions: for Cmax / MRT: male, FVB/N, mouse, ip, 2 mg/kg; for AUC0→t (AUC0→60 min): 0-60 min
[3] = fatal intoxication after ingestion of Ayahuasca preparation; cited from earlier work

Row | Compound | brain over blood ratio of drug concentration [1] | Cmax ([2]; serum) [ng/mL] | MRT ([2]; serum) [min] | serum concentration at 90 min ([2]; mice, 90 min after 5-MeO-DMT 2 mg/kg i.p., metabolite) | systemic exposure (AUC) to bufotenine relative to that to 5-MeO-DMT ([2]; mice, after 5-MeO-DMT 2 mg/kg i.p.) | Tmax ([2]; mice, serum, after 5-MeO-DMT 2 mg/kg i.p., bufotenine as metabolite) [min] | AUC0→t (AUC0→60 min) ([2]; mice, serum, after 5-MeO-DMT 2 mg/kg i.p., metabolite) [µg·min/L] | AUC0→t (AUC0→60 min) ([2]; mice, serum, after 5-MeO-DMT 2 mg/kg i.p., metabolite, listed as bufotenine) [µg·min/L] | concentration in heart blood of decedent [3] [ng/mL] | serum concentration at 60 min relative to Cmax ([2]; mice, 60 min after 5-MeO-DMT 2 mg/kg i.p.) [%] | AUC0→t (AUC0→90 min) ([2]; mice, serum, after 5-MeO-DMT 2 mg/kg i.p., 0-90 min)
1 | CN(C)CCc1c[nH]c2ccc(O)cc12 [Bufotenine, bufotenine] | 1/15 | 10.6 ± 2.3 | 24.3 | below the LLOQ | about 1/14 | 13.3 ± 5.8 | 388 ± 82 | 388 | – | – | –
2 | COc1ccc2[nH]cc(CCN(C)C)c2c1 [5-MeO-DMT, 5-Methoxy-N,N-dimethyltryptamine, reference compound] | – | 298 ± 29 | 17.6 | – | – | – | – | – | 1880 | 4.4 | 6,000 ± 1,240 µg·min/L
